Laboratory results as given in patent publication US11879137B2, “Treatment of type 1 diabetes and autoimmune diseases or disorders” (THE CHILDREN'S MEDICAL CENTER CORPORATION, priority 2017, dated 2024).

How the values were obtained:
PD-L1 on CD34+ cells [1] = test: 7-day culture of CD34+ cells with PGE2 and hematopoietic cytokines (STFIA medium), PD-L1+CD34+ by FACS; format: cell-based, human; details: for increase in the percentage of PD-L1+CD34+ cells: 7 days, STFIA medium, PGE2 10 μM
Method: FIGS. 18A-18J show effects of human PGE2-modulated and cytokine-treated CD34^+ cells. […] (FIG. 18C) Effect of PGE2 pulsing on CD34^+ cells cultured for 0, 24 h, 72 h and 6 days on PD-L1 expression on CD34^+ cells. (FIG. 18D-18E) Bar graphs showing an increase in the number of PD-L1^+CD34^+ cells and fold increase in cell number after 7 days of culture with PGE2 supplemented with cytokines. (FIG. 18F-18G) Upregulation of PD-L1 expression following culture with PGE2 (shown as percentage) on CD34^+ cells was not altered by the freeze/thawing process. (FIG. 18H) PGE2-modulated CD34^+ cells abrogate the IFN-γ autoimmune response to insulin-associated 2 (I-A2) autoantigen in vitro, as measured via the quantification of IFN-γ-producing cells in an Elispot assay; […]. (FIG. 18I) PGE2-modulated CD34^+ cells and PGE2-modulated CD34^+ cells cultured for 7 days in STFIA media abrogate the IFN-γ autoimmune response towards insulin-associated 2 (I-A2) autoantigen in vitro, as measured via the quantification of IFN-γ-producing cells in an Elispot assay, even when added at low dose. (FIG. 18J) PGE2-modulated CD34^+ cells abrogate the anti-CD3/CD28-stimulated PBMC response in vitro as measured via the quantification of IFN-γ-producing cells in an Elispot assay. […] Abbreviations: SCF, stem cell factor; TPO, thrombopoietin; hFGF-1, human fibroblast growth factor 1; IGFBP2, insulin-like growth factor-binding protein 2; Angptl3, angiopoietin-like 3; PBMCs, peripheral blood mononuclear cells.
Pharmacological modulation of human CD34+ cells. […] Data were analyzed using FlowJo software version 8.7.3 (Treestar, Ashland, OR). […]
PGE2 highly augments PD-L1 expression in human HSPCs when supplemented with hematopoietic cytokine. […] PD-L1+ HSPCs were then quantified by FACS analysis at different time points post-culture. […]

PD-L1 on CD34+ cells [2] = test: Confocal imaging of PD-L1 on PGE2-treated CD34+ cells; format: cell-based, human; details: vs untreated CD34+ cells
Method: Immunofluorescence and confocal microscopy. Regulatory CD34+(PGE2-modulated) cells and unmodulated CD34+ cells isolated from peripheral blood of healthy controls were fixed in 4% PFA for 1h at 4 C, washed 3 times for 20 min in PBS, and cells were counterstained with blue fluorescent DAPI (1:10000, BioLegend, San Diego, CA) and anti-human PD-L1 (BD Biosciences). Cells were photographed under a 63× objective. Images were captured on a Leica SPSX system with an upright DM6000 microscope and AIR confocal microscope (Nikon Instruments, Melville, NY). Histology was evaluated by at least two expert pathologist (9).
Prostaglandin library screening. PGE2 has been described as a small molecule known to enhance the homing and engraftment of HSPCs. It was therefore sought to screen all known types of prostaglandins using the Prostaglandin Screening Library II, which contains 64 small molecules. Each small molecule contained in the library was first screened for its capacity to upregulate PD-L1 in human CD34+ cells isolated from T1D patients (FIG. 17A-17B). […] Using FACS analysis, the MFI (mean fluorescence intensity) of PD-L1 expression was calculated following treatment with each small molecule used to modulate CD34+ cells as compared to untreated/unmodulated CD34+ cells (FIG. 17B). […]

## CCCCC[C@H](O)/C=C/[C@H]1[C@H](O)CC(=O)[C@@H]1C/C=C\CCCC(=O)O [PGE2, prostaglandin E2]
PD-L1 on CD34+ cells [1]; HSPCs from T1D
  increase in the percentage of PD-L1+CD34+ cells: ~5 fold
PD-L1 on CD34+ cells [1]; fresh vs frozen HSPCs, 7 days STFIA media pulsed with PGE2
  PD-L1 expression pre- and post-cryopreservation: Sustained and conserved
PD-L1 on CD34+ cells [1]; healthy control patients
  increase in the percentage of PD-L1+CD34+ cells: ~2 fold
PD-L1 on CD34+ cells [2]
  PD-L1 surface expression by confocal imaging: upregulated
